{
  "source": "patent US20140127235A1",
  "about": "“TARGETING HK alpha FOR CONTROLLING BLOOD PRESSURE AND REGULATING ELECTROLYTE BALANCE” (UNIVERSITY OF FLORIDA RESEARCH FOUNDATION, INC., priority 2011, published 2014)",
  "assay_type_in_all_cases": "in vivo, mouse",
  "key": {"[1]": {"assay": "DOCP treatment of wild type, HKα1−/− and HKα1,2−/− mice: body weight, blood electrolytes, urinary and fecal electrolyte excretion", "excerpt": "In a separate study, the effect of DOCP treatment of body weight change, blood electrolytes, and urinary and fecal electrolyte excretion was examined in wild type, HKα1^−/−, and HKα1,2^−/− mice on a normal diet.\nIn the context of whole animal physiology, it is important to examine the overall electrolyte balance as the […] of urinary and fecal excretion subtracted from the intake of that electrolyte.\n(§1) Mice were fed normal lab chow, given free access to water, and given an i.m. injection of 1.7 mg DOCP (Percorten V, Novartis Pharmaceuticals). For perfusion and expression studies, mice were sacrificed with Na^+ pentobarbital (i.p. 120 mg/kg) followed by cervical dislocation. For time course experiments, another group of animals were anesthetized with 3-4% isoflurane and aortic blood was collected into a heparinized syringe for immediate analysis of electrolytes and blood gases (Nova pHOx Plus analyzer, Nova Biomedical). For high K^+ diet studies, mice were given a normal, powdered diet (TD99131, Teklad) supplemented with KCl to equal 5% K^+ which was then made as a gel. Half of the mice were treated with DOCP. Blood and tissues were collected as in the time course experiments. For urinalysis experiments, mice were housed in metabolic cages for thirteen days and fed a normal gel diet with free access to a water bottle. On day five, mice were treated with DOCP as above. Urine and feces were collected daily. Urine electrolytes were measured on a clinical analyzer (Nova 16 analyzer, Nova Biomedical) and fecal electrolytes were measured on a digital flame photometer (Model 2655-00, Cole-Parmer)."}, "[2]": {"assay": "Survival of DOCP-treated WT and HKα1,2−/− mice over 60 days", "details": "two injections of DOCP on day zero and day 57", "excerpt": "These animals all received two injections of DOCP on day zero and day 57. Four of the HKα1,2^−/− mice died at day's nine 46, 47, and 59 for an overall survival at 60 days of 57% for the HKα1,2^−/− mice whereas there were no deaths in the nine WT animals X^2 (log-rank): 4.554 (P<0.05)."}, "HKα1 mRNA": {"system": "HKα1 mRNA", "assay": "Real time PCR of renal HKα1 mRNA expression in DOCP-treated mice", "details": "cortex, outer medulla and inner medulla, eight days after DOCP, normal diet", "excerpt": "(§2) The principal mechanism of mineralocorticoid action is through modulation of target gene transcription.^15 Therefore, the next experiments evaluated the effect of DOCP on renal HKα1 and HKα2 mRNA expression. Real time quantitative PCR was used to investigate changes in steady state mRNA levels of H^+,K^+-ATPase α subunits, HKα1 and HKα2, in cortex, outer medulla, and inner medulla of control and DOCP-treated mice.\n(§3) RNA was recovered from cortex, medulla, and inner medulla with TRIzol reagent (Invitrogen). RNA was treated with DNase 1 (Ambion DNA Free) and converted to cDNA using SuperScript III (Invitrogen). For real time quantitative PCR, 20 ng cDNA was used to quantify mRNA expression with TaqMan Gene Expression (Applied Biosystems) primer/probe sets for HKα1 (Atp4a, Mm00444423_m1), HKα2 (Atp12a, Mm0131809_m1), and β-actin (Actb, Mm00607939_s1). Cycle threshold (Ct) values were normalized to β-actin, and relative expression (control set to 100%) was calculated by the ΔΔCt method.^28"}, "[3]": {"assay": "Time course of the physiological effect of DOCP treatment in wild type mice (body weight, blood electrolytes)", "details": "for Change in BW (%) / Blood [Cl−] / Blood [HCO3−] / Blood [K+] / Blood [Na+]: wild type mice; for Change in BW (%): DOCP 1.7 mg i.m.", "protocol": "A primary goal of the study was to characterize the temporal changes in body weight, Na^+, K^+, and acid-base homeostasis during chronic mineralocorticoid excess. Body weight and blood electrolytes were measured over an eight day time course in untreated (control) mice and those treated with DOCP (1.7 mg) (Table 1).\nas §1"}, "HKα2 mRNA": {"system": "HKα2 mRNA", "assay": "Real time PCR of renal HKα2 mRNA expression in DOCP-treated mice", "excerpt": "as §2\nDeficits in K^+ homeostasis have long been known to stimulate H^+,K^+-ATPase activity and HKα subunit expression. Therefore, the next experiments investigated whether the decreases in blood [K^+] observed in DOCP-treated mice were responsible for the stimulation of HKα2 mRNA expression. For this experiment, mice were fed a high K^+ diet and then left untreated (control) or given DOCP treatment. Body weight and blood electrolytes were measured eight days after treatment and kidneys were collected for analysis of HKα, and HKα2 mRNA expression by real time PCR. A high K^+ diet abrogated the effect of DOCP on body weight gain, blood [K^+], [Cl^−], and [HCO3^−] in mice (Table 3). Similarly, the stimulation of HKα, or HKα2 mRNA expression with DOCP was absent in mice fed a high K^+ diet (FIGS. 3C and 3D).\nas §3"}},
  "data": [
    {"smiles": "CC(C)(C)C(=O)OCC(=O)[C@H]1CC[C@H]2[C@@H]3CCC4=CC(=O)CC[C@]4(C)[C@H]3CC[C@]12C", "note": "[DOCP, desoxycorticosterone pivalate]", "values": [
      {"measurement": "effect of DOCP to decrease blood [Cl−] and increase blood [HCO3−]", "setting": "[1]; HKα1,2−/− mice, day eight", "value": "eliminated"},
      {"measurement": "K+ retention, less than wild type mice with DOCP treatment", "setting": "[1]; HKα1,2−/− mice, day eight, overall balance", "value": "~40", "unit": "%"},
      {"measurement": "Overall Na+ retention versus wild type or HKα1−/− mice", "setting": "[1]; HKα1,2−/− mice, eighth day of DOCP treatment", "value": "significantly less"},
      {"measurement": "increase of fecal K+ loss with DOCP treatment", "setting": "[1]; HKα1−/− and HKα1,2−/− mice, versus control period", "value": "~50", "unit": "%"},
      {"measurement": "Urine volume by the end of DOCP treatment", "setting": "[1]; HKα1−/− mice", "value": "considerably decreased"},
      {"measurement": "DOCP-induced body weight gain relative to wild type", "setting": "[1]; HKα1−/− mice, day eight, normal diet", "value": "augmented nearly two-fold"},
      {"measurement": "dry stool weight, more than wild type or HKα1,2−/− mice when treated with DOCP", "setting": "[1]; HKα1−/− mice, pair fed", "value": 50, "unit": "%"},
      {"measurement": "Urine volume by the end of DOCP treatment", "setting": "[1]; wild type and HKα1,2−/− mice", "value": "doubled"},
      {"measurement": "overall Na+ balance with DOCP treatment", "setting": "[1]; wild type mice", "value": "increased"},
      {"measurement": "overall survival at 60 days", "setting": "[2]; HKα1,2−/− mice (seven)", "value": 57, "unit": "%"},
      {"measurement": "deaths over 60 days", "setting": "[2]; nine WT mice", "value": "no deaths"},
      {"measurement": "HKα1 mRNA expression compared to control", "setting": "HKα1 mRNA", "value": "not significantly altered"},
      {"measurement": "Change in BW (%)", "setting": "[3]; Day 2", "value": "0.06 ± 1.2 (7) %"},
      {"measurement": "Change in BW (%)", "setting": "[3]; Day 4", "value": "2.0 ± 1.2 (7) %"},
      {"measurement": "Change in BW (%)", "setting": "[3]; Day 6", "value": "5.4 ± 1.4 (7)**^,† %"},
      {"measurement": "Change in BW (%)", "setting": "[3]; Day 8", "value": "6.1 ± 1.2 (7)**^,† %"},
      {"measurement": "Blood [Cl−]", "setting": "[3]; Day 2 of DOCP", "value": "120 ± 1.8 (3) mM"},
      {"measurement": "Blood [HCO3−]", "setting": "[3]; Day 2 of DOCP", "value": "19 ± 0.87 (4) mM"},
      {"measurement": "Blood [K+]", "setting": "[3]; Day 2 of DOCP", "value": "3.5 ± 0.12 (4) mM"},
      {"measurement": "Blood [Na+]", "setting": "[3]; Day 2 of DOCP", "value": "150 ± 1.3 (3) mM"},
      {"measurement": "Blood [Cl−]", "setting": "[3]; Day 4 of DOCP", "value": "116 ± 0.95 (4) mM"},
      {"measurement": "Blood [HCO3−]", "setting": "[3]; Day 4 of DOCP", "value": "20 ± 1.2 (4) mM"},
      {"measurement": "Blood [K+]", "setting": "[3]; Day 4 of DOCP", "value": "3.5 ± 0.17 (4) mM"},
      {"measurement": "Blood [Na+]", "setting": "[3]; Day 4 of DOCP", "value": "153 ± 1.8 (4) mM"},
      {"measurement": "Blood [Cl−]", "setting": "[3]; Day 6 of DOCP", "value": "117 ± 0.35 (3) mM"},
      {"measurement": "Blood [HCO3−]", "setting": "[3]; Day 6 of DOCP", "value": "20 ± 0.53 (3) mM"},
      {"measurement": "Blood [K+]", "setting": "[3]; Day 6 of DOCP", "value": "2.9 ± 0.21 (3) mM"},
      {"measurement": "Blood [Na+]", "setting": "[3]; Day 6 of DOCP", "value": "153 ± 0.80 (3) mM"},
      {"measurement": "Blood [Cl−]", "setting": "[3]; Day 8 of DOCP", "value": "111 ± 0.82 (3)*^,**^,†,‡ mM"},
      {"measurement": "Blood [HCO3−]", "setting": "[3]; Day 8 of DOCP", "value": "23 ± 2.0 (3) mM"},
      {"measurement": "Blood [K+]", "setting": "[3]; Day 8 of DOCP", "value": "2.8 ± 0.07 (3)*^,† mM"},
      {"measurement": "Blood [Na+]", "setting": "[3]; Day 8 of DOCP", "value": "150 ± 0.41 (3) mM"},
      {"measurement": "decrease in blood [Cl−]", "setting": "[3]; wild-type mice, eight days of DOCP treatment", "value": "approximately 7 mM"},
      {"measurement": "HKα2 mRNA expression", "setting": "HKα2 mRNA; cortex, eight days after DOCP, normal diet", "value": "did not affect"},
      {"measurement": "HKα2 mRNA levels, increase", "setting": "HKα2 mRNA; inner medulla, eight days after DOCP, normal diet", "value": "as much as five-fold"},
      {"measurement": "stimulation of HKα1 or HKα2 mRNA expression with DOCP", "setting": "HKα2 mRNA; mice fed a high K+ diet", "value": "absent"},
      {"measurement": "HKα2 mRNA levels, increase", "setting": "HKα2 mRNA; outer medulla, eight days after DOCP, normal diet", "value": "more than two-fold"}
    ]}
  ]
}
